Measurements from patent publication US20240360134A1, “PYRAZOLOPYRIMIDINES AND THEIR USES AS PDGFR INHIBITORS” (priority 2021, published 2024).
Read-outs that look alike come from different tables or passages of the source.

Experiments:
PDGFRβ = PDGFRβ (Rattus norvegicus (Rat), UniProt Q05030); assay: PDGFRβ Cellular Assay (PDGFRb P-Y751 HTRF, PDGF-BB stimulated A10 cells); assay type: cell-based
Summary of the method: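 Rat A10 cells plated overnight were treated with compound for 3 h, stimulated with rat PDGF-BB (working stock 100 ng/mL in 10% FBS medium) for 10 min, then lysed.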

[1] = target: His6-TEV-PDGFRβ (557-1016) (Homo sapiens (Human), UniProt P09619); assay: PDGFRβ HTRF Assay; assay type: biochemical
Chain of His6-TEV-PDGFRβ (557-1016) (P09619 whole entry, looked up): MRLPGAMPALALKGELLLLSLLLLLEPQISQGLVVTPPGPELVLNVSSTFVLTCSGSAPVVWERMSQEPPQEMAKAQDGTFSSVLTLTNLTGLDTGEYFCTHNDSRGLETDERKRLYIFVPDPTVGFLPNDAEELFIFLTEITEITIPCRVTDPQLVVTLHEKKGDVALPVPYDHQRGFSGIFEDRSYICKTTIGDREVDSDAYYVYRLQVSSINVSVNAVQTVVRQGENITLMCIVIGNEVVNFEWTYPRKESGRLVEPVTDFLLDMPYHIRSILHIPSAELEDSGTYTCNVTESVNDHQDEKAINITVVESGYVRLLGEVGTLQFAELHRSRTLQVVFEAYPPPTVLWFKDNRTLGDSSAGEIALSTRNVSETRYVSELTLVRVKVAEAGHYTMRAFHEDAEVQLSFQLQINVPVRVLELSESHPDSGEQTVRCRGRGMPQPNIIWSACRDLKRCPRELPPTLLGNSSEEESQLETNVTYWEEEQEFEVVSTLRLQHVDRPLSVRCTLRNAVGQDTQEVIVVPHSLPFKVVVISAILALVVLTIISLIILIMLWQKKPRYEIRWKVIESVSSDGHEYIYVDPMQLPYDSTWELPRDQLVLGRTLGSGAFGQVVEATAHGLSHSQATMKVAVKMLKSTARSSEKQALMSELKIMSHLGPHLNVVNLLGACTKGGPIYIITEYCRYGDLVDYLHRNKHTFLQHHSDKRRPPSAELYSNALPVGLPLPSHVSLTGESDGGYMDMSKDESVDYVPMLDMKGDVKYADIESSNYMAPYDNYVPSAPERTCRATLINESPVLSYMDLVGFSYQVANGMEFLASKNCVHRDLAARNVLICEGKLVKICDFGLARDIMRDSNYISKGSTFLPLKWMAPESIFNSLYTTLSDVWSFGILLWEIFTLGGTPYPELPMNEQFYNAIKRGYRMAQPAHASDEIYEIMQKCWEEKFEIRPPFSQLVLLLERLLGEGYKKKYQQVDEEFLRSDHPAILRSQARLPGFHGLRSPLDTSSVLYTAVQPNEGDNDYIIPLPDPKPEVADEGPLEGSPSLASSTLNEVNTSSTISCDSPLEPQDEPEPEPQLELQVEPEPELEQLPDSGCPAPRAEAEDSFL

VEGFR2, unphosphorylated = VEGFR2, unphosphorylated (Homo sapiens (Human), UniProt P35968); assay: VEGFR ADP GLO assay; assay type: biochemical; conditions: 5 nM VEGFR2, 1.2 mM ATP, 1 mg/mL Srctide, 180 min
Chain of VEGFR2, unphosphorylated (P35968 whole entry, looked up): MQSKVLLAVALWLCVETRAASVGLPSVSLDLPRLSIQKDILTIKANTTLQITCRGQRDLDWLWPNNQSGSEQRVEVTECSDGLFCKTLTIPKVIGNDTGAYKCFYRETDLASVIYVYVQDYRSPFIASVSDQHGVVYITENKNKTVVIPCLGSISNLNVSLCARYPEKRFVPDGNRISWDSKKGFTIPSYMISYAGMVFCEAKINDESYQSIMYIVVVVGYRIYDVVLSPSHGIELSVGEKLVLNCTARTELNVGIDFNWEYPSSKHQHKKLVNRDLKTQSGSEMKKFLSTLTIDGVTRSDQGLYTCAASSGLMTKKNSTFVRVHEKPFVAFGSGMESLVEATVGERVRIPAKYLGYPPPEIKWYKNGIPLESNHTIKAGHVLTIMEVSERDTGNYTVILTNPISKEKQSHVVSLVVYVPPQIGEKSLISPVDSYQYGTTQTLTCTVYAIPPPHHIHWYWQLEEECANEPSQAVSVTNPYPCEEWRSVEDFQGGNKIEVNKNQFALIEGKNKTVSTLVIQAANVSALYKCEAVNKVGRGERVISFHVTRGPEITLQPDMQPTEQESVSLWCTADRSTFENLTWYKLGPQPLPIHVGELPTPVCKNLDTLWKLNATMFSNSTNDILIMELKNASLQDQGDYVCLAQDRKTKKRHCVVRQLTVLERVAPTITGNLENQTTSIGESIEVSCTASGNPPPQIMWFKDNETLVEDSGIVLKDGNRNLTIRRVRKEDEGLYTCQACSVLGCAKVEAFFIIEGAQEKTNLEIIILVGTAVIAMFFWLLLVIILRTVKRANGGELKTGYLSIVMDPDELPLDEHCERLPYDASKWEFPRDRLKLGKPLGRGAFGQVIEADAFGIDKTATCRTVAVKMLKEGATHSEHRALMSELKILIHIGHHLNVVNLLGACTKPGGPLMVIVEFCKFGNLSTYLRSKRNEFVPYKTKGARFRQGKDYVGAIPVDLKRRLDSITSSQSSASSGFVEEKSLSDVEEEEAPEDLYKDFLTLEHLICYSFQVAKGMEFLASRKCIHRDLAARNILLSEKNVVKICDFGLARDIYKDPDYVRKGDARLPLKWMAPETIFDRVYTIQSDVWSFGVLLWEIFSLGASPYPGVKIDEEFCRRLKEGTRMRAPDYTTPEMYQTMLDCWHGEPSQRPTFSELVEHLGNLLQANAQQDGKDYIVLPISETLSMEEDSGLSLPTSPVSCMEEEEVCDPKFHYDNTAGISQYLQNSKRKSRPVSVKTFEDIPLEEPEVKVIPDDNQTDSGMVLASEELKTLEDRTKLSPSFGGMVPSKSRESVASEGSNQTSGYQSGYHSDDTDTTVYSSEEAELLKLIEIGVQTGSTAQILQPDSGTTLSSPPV
Summary of the method: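 Unphosphorylated kinase (10 nM 2× solution) pre-incubated 30 min at RT with compounds (11-point, 3-fold, top 10 µM), then reacted 180 min with srctide and ATP (2×: 2 mg/mL, 2.4 mM) in HEPES pH 7.5 buffer. ADP read by luminescence. IC50 from 4-parameter fit, normalized to DMSO and 1 µM TAK-593.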

[2] = target: Tb-labeled inactive PDGFRβ (Homo sapiens (Human), UniProt P09619); assay: biochemical; assay type: binding
Chain of Tb-labeled inactive PDGFRβ (P09619 whole entry, looked up): as the sequence (P09619 whole entry, looked up) above

[3] = A10 cells, 3 hours compound, 15 ng/mL PDGFbb for 10 minutes, read-out: PDGFR Cellular IC50
[4] = 800 μM ATP, 0.5 μM TK-substrate biotin peptide, 30 min pre-incubation, 3 hours reaction, read-out: PDGFR HTRF IC50

Chain of PDGFRβ (Q05030 whole entry, looked up): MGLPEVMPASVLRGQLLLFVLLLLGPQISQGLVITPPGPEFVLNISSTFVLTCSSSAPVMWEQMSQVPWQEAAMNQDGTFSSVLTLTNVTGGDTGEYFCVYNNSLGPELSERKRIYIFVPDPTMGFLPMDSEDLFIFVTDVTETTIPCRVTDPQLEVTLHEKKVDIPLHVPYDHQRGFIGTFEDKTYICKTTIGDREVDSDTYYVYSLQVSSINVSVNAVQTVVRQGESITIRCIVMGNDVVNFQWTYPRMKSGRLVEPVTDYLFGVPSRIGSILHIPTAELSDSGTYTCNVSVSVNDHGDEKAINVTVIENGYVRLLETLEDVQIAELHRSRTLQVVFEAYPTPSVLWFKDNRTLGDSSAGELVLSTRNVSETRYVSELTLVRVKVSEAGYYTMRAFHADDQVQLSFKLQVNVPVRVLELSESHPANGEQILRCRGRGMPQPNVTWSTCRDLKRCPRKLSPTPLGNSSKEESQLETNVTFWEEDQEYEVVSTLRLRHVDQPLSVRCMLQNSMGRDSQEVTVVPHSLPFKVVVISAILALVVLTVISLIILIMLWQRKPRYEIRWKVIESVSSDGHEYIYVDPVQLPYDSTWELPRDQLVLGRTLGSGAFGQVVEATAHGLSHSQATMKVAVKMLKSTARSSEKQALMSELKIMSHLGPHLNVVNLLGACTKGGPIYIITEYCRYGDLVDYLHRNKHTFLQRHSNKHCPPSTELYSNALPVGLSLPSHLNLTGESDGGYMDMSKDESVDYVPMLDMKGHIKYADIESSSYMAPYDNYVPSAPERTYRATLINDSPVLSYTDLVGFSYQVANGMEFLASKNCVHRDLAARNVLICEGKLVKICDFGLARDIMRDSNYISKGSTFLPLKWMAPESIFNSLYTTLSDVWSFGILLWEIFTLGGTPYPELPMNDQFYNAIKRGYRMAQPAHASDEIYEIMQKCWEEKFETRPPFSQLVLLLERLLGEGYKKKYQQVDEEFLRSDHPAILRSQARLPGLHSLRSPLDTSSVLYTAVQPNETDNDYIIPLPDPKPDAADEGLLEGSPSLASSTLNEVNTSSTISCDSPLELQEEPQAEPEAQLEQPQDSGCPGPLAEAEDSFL

| Compound | IC50 (PDGFRβ; [3]) [nM] | IC50 [1, 4] [nM] | IC50 (VEGFR2, unphosphorylated) [nM] | IC50 ([2]; read-out: PDGFR Lantha IC50) [nM] | IC50 (PDGFRβ) [nM] | IC50 [1] [nM] | IC50 [2] [nM] |
| --- | --- | --- | --- | --- | --- | --- | --- |
| Cc1ncc(C(=O)NCCN2C3CCCC2CCC3)cc1Nc1nn(C)c2nc(Nc3cnn(C)c3)ncc12 [Example 89, N-(2-(9-azabicyclo[3.3.1]nonan-9-yl)ethyl)-6-methyl-5-((1-methyl-6-((1-methyl-1H-pyrazol-4-yl)amino)-1H-pyrazolo[3,4-d]pyrimidin-3-yl)amino)nicotinamide] | 33.3 | 0.33 | 4090 | 2.8 | – | – | – |
| COCCn1cc(Nc2ncc3c(Nc4cc(C(=O)NCCN5CCCC5(C)C)cnc4C)nn(C)c3n2)cn1 [Example 148, N-(2-(2,2-dimethylpyrrolidin-1-yl)ethyl)-5-((6-((1-(2-methoxyethyl)-1H-pyrazol-4-yl)amino)-1-methyl-1H-pyrazolo[3,4-d]pyrimidin-3-yl)amino)-6-methylnicotinamide] | 64.9 | 0.74 | > 7500 | 4.3 | – | – | – |
| Cc1ncc(C(=O)NCCN2CCCCC23CC3)cc1Nc1nn(C)c2nc(Nc3cnn(C)c3)ncc12 [Example 150, N-(2-(4-azaspiro[2.5]octan-4-yl)ethyl)-6-methyl-5-((1-methyl-6-((1-methyl-1H-pyrazol-4-yl)amino)-1H-pyrazolo[3,4-d]pyrimidin-3-yl)amino)nicotinamide] | 4.3 | 0.3 | 1550 | 1.2 | – | – | – |
| Cc1cc(C(=O)NCCN2CCC[C@@H]2C)sc1Nc1nn(C)c2nc(Nc3cnn(C)c3)ncc12 [Example 60, (S)-4-methyl-5-((1-methyl-6-((1-methyl-1H-pyrazol-4-yl)amino)-1H-pyrazolo[3,4-d]pyrimidin-3-yl)amino)-N-(2-(2-methylpyrrolidin-1-yl)ethyl)thiophene-2-carboxamide] | 67.2 | 0.65 | > 7500 | 9.7 | – | – | – |
| Cc1ncc(C(=O)NCCN2C[C@@H](C)O[C@@H](C)C2)cc1Nc1nn(C)c2nc(Nc3cnn(C)c3)ncc12 [Example 91, N-(2-(cis-2,6-dimethylmorpholino)ethyl)-6-methyl-5-((1-methyl-6-((1-methyl-1H-pyrazol-4-yl)amino)-1H-pyrazolo[3,4-d]pyrimidin-3-yl)amino)nicotinamide] | 44.3 | 0.46 | > 7500 | 4.2 | – | – | – |
| CC[C@H]1COCCN1CCNC(=O)c1cnc(C)c(Nc2nn(C)c3nc(Nc4cnn(C)c4)ncc23)c1 [Example 81, (S)—N-(2-(3-ethylmorpholino)ethyl)-6-methyl-5-((1-methyl-6-((1-methyl-1H-pyrazol-4-yl)amino)-1H-pyrazolo[3,4-d]pyrimidin-3-yl)amino)nicotinamide] | – | – | 2500 | – | 21.1 | 0.42 | 2.6 |
| Cc1ncc(C(=O)NCCN2CCC[C@@H]2C)cc1Nc1nn(C)c2nc(Nc3cncnc3)ncc12 [Example 3, (S)-6-methyl-5-((1-methyl-6-(pyrimidin-5-ylamino)-1H-pyrazolo [3,4-d]pyrimidin-3-yl)amino)-N-(2-(2-methylpyrrolidin-1-yl)ethyl)nicotinamide] | 113 | 0.68 | > 7500 | 6.8 | – | – | – |
| Cc1ncc(NC(=O)CN2CC(C)(C)C2)cc1Nc1nn(C)c2nc(Nc3cnn(C)c3)ncc12 [Example 77, 2-(3,3-dimethylazetidin-1-yl)-N-(6-methyl-5-((1-methyl-6-((1-methyl-1H-pyrazol-4-yl)amino)-1H-pyrazolo[3,4-d]pyrimidin-3-yl)amino)pyridin-3-yl)acetamide] | 2.4 | 0.24 | 5110 | 1.9 | – | – | – |
| Cc1ncc(C(=O)NCCC2CCCCC2)cc1Nc1nn(C)c2nc(Nc3ccnc(N4CCN(CCO)CC4)c3)ncc12 [Example 110, N-(2-cyclohexylethyl)-5-((6-((2-(4-(2-hydroxyethyl)piperazin-1-yl)pyridin-4-yl)amino)-1-methyl-1H-pyrazolo[3,4-d]pyrimidin-3-yl)amino)-6-methylnicotinamide] | 108 | 0.77 | 143 | 3.9 | – | – | – |
| Cc1ncc(C(=O)NCCN2CCCC2(C)C)cc1Nc1nn(C)c2nc(Nc3cncc(C(=O)O)c3)ncc12 [Example 30, 5-((3-((5-((2-(2,2-dimethylpyrrolidin-1-yl)ethyl)carbamoyl)-2-methylpyridin-3-yl)amino)-1-methyl-1H-pyrazolo[3,4-d]pyrimidin-6-yl)amino)nicotinic acid] | > 10000 | 3.8 | > 10000 | 36.8 | – | – | – |
| COCCN(CCNC(=O)c1cnc(C)c(Nc2nn(C)c3nc(Nc4cnn(C)c4)ncc23)c1)C1CCC1 [Example 84, N-(2-(cyclobutyl(2-methoxyethyl)amino)ethyl)-6-methyl-5-((1-methyl-6-((1-methyl-1H-pyrazol-4-yl)amino)-1H-pyrazolo[3,4-d]pyrimidin-3-yl)amino)nicotinamide] | 11.1 | 0.39 | > 7500 | 3.6 | – | – | – |
| Cc1ncc(C(=O)NCCN2CCCC2(C)C)cc1Nc1nn(C)c2nc(Nc3cccc(C(C)(C)C(=O)O)c3)ncc12 [Example 47, 2-(3-((3-((5-((2-(2,2-dimethylpyrrolidin-1-yl)ethyl)carbamoyl)-2-methylpyridin-3-yl)amino)-1-methyl-1H-pyrazolo[3,4-d]pyrimidin-6-yl)amino)phenyl)-2-methylpropanoic acid] | > 3000 | 2.58 | 2420 | 14.6 | – | – | – |
| Cc1ncc(C(=O)NCCN2CCCC2(C)C)cc1Nc1nn(C)c2cc(Nc3cnn(C)c3)ncc12 [Example 69, N-(2-(2,2-dimethylpyrrolidin-1-yl)ethyl)-6-methyl-5-((1-methyl-6-((1-methyl-1H-pyrazol-4-yl)amino)-1H-pyrazolo[4,3-c]pyridin-3-yl)amino)nicotinamide] | 36.9 | 1.27 | > 7500 | 48.4 | – | – | – |
| COCCn1cc(Nc2ncc3c(Nc4cc(NC(=O)CN5CCCC5(C)C)cnc4C)nn(C)c3n2)cn1 [Example 125, 2-(2,2-dimethylpyrrolidin-1-yl)-N-(5-((6-((1-(2-methoxyethyl)-1H-pyrazol-4-yl)amino)-1-methyl-1H-pyrazolo[3,4-d]pyrimidin-3-yl)amino)-6-methylpyridin-3-yl)acetamide] | 2.7 | 0.34 | > 7500 | 1.7 | – | – | – |
| Cc1ncc(C(=O)NCCN2C3CCC2CC3)cc1Nc1nn(C)c2nc(Nc3cnn(C)c3)ncc12 [Example 153, N-(2-(7-azabicyclo[2.2.1]heptan-7-yl)ethyl)-6-methyl-5-((1-methyl-6-((1-methyl-1H-pyrazol-4-yl)amino)-1H-pyrazolo[3,4-d]pyrimidin-3-yl)amino)nicotinamide] | 113 | 0.26 | > 7500 | 1.3 | – | – | – |
| Cc1ncc(C(=O)NCCC2CCCCC2)cc1Nc1nn(C)c2nc(NCCC3CCCCC3)ncc12 [Example 108, N-(2-cyclohexylethyl)-5-((6-((2-cyclohexylethyl)amino)-1-methyl-1H-pyrazolo[3,4-d]pyrimidin-3-yl)amino)-6-methylnicotinamide] | 2270 | 172 | > 7500 | > 3000 | – | – | – |
| Cc1ncc(C(=O)NCCN2[C@H](C)COC[C@H]2C)cc1Nc1nn(C)c2nc(Nc3cnn(C)c3)ncc12 (relative stereo) [Example 94, N-(2-(trans-3,5-dimethylmorpholino)ethyl)-6-methyl-5-((1-methyl-6-((1-methyl-1H-pyrazol-4-yl)amino)-1H-pyrazolo[3,4-d]pyrimidin-3-yl)amino)nicotinamide] | 13.9 | 0.33 | 1170 | 2.1 | – | – | – |
| Cc1ncc(C(=O)NCCC2CCCCC2)cc1Nc1nn(C)c2nc(Nc3cncc(CC(=O)O)c3)ncc12 [Example 107, 2-(5-((3-((5-((2-cyclohexylethyl)carbamoyl)-2-methylpyridin-3-yl)amino)-1-methyl-1H-pyrazolo[3,4-d]pyrimidin-6-yl)amino)pyridin-3-yl)acetic acid] | > 2000 | 0.55 | 11 | 2.8 | – | – | – |
| Cc1ncc(C(=O)NCCC2CCCCC2)cc1Nc1nn(C)c2nc(Nc3ccc(CC(=O)O)cc3)ncc12 [Example 104, 2-(4-((3-((5-((2-cyclohexylethyl)carbamoyl)-2-methylpyridin-3-yl)amino)-1-methyl-1H-pyrazolo[3,4-d]pyrimidin-6-yl)amino)phenyl)acetic acid] | 2360 | 0.44 | 77.2 | 2.4 | – | – | – |
| Cc1nn(C)cc1Nc1ncc2c(Nc3cc(C(=O)NCCN4CCC[C@@H]4C)cnc3C)nn(C)c2n1 [Example 160, (S)-5-((6-((1,3-dimethyl-1H-pyrazol-4-yl)amino)-1-methyl-1H-pyrazolo[3,4-d]pyrimidin-3-yl)amino)-6-methyl-N-(2-(2-methylpyrrolidin-1-yl)ethyl)nicotinamide] | 53.3 | 1.55 | > 7500 | 11.3 | – | – | – |
